Laboratory results published in US5691373A, “Nonpeptide endothelin antagonists I” (Warner-Lambert Company, priority 1995, dated 1997).
Counter-ions that a name gives are not always drawn. Like-named read-outs stand apart in the source and are kept apart here.

Legend:
ETA = target: T1, ETA (Oryctolagus cuniculus, UniProt A5A8K3)
T1 sequence (A5A8K3 21-427): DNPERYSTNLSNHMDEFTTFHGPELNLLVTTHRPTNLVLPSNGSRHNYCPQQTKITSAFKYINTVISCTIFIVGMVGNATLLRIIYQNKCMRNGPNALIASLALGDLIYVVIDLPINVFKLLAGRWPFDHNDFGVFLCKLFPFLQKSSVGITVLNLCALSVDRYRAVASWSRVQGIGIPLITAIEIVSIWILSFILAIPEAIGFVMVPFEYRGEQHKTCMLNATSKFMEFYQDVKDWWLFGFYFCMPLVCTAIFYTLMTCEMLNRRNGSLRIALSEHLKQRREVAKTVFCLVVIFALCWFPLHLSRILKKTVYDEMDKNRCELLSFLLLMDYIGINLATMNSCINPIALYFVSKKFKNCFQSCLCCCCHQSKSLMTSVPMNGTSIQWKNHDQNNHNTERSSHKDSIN

human ETB receptor = target: T2, human ETB receptor (Homo sapiens, UniProt P24530); assay: ERBA-B: [125I]-ET-1 binding, recombinant human ETB receptor expressed in CHO-K1 cells; conditions: human cloned ETB receptor, read-out: ERBA-B IC50, human cloned receptor data
T2 construct: expressed in transfected cells; host or cells: CHO-K1 cells, pRc-CMW (so in the source) expression vector, electroporation; membranes used
T2 sequence (P24530 27-442): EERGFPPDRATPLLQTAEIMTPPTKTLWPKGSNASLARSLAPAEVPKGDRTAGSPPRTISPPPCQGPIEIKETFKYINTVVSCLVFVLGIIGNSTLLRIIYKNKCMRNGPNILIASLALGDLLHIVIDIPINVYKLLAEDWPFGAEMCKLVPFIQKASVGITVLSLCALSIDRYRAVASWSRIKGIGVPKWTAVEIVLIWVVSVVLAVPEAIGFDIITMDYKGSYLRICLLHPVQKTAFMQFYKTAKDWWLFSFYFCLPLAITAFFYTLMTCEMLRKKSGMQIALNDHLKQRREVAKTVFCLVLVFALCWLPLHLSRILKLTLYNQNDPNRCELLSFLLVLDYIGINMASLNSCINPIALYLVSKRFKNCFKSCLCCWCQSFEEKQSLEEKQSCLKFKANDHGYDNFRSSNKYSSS
Description: Count filters for radioactivity in gamma counter.
The above process has also been modified by using human recombinant CHO-K1 cells.
The tissue used for human ETB was recombinant human ETB receptor expressed in CHO-K1 cells (chinese hamster ovary cells). The gene for human ETB receptor was cloned and inserted into the pRc-CMW expression vector, then transfected into CHO-K1 cells by electroporation. For binding assays, membranes (0.7 mg protein) of CHO-K1 cells expressing recombinant human ETB receptor were used.
^d Human cloned receptor data

[1] = ERBA-A IC50, [125I]-ET-1, rabbit renal artery vascular smooth muscle cells

Compound | IC50 (ETA; [1]) [µM] | IC50 (human ETB receptor) [µM] | IC50 (ETA; read-out: ERBA-A IC50, [125I]-ET-1, rabbit renal artery vascular smooth muscle cells) [µM]
COc1ccc(CC2=C(c3ccc(N(C)C)cc3)C(=O)OC2(O)c2ccc(Cl)cc2)cc1OC (racemic) [Example 56, 2(5H)-Furanone, 5-(4-chlorophenyl)-4-[(3,4-dimethoxyphenyl)methyl]-3-[4-(dimethylamino)phenyl]-5-hydroxy-, (±)-] | 14 |  | 
CC(C)c1ccc(CC2=C(c3ccc(N(C)C)cc3)C(=O)OC2(O)c2ccc(Cl)cc2)cc1 (racemic) [Example 57, 2(5H)-Furanone, 5-(4-chlorophenyl)-3-[(4-(dimethylamino)phenyl]-5-hydroxy-4-[[4-(1-methylethyl)phenyl]methyl]-, (±)-] | 11 |  | 
COc1ccc(C2(O)OC(=O)C(c3ccc4c(c3)OCO4)=C2Cc2ccc(C(=O)NCCN3CCOCC3)cc2)cc1 (racemic) [Example 350, Benzamide, 4-[4-(1,3-benzodioxol-5-yl)-2,5-dihydro-2-hydroxy-2-(4-methoxyphenyl)-5-oxo-3-furanyl]methyl]-N-[2-(4-morpholinyl)ethyl]-, monohydrochloride, (±)-] |  | > 2.5 | 0.29
CCC1=C(c2ccc3c(c2)OCO3)C(=O)OC1(O)c1ccc(OC)cc1 (stereo not shown) [Example 91, 3-Benzo[1,3]dioxol-5-yl-4-ethyl-5-hydroxy-5-(4-methoxyphenyl)-5H-furan-2-on] | 0.53 | 15 | 
COc1ccc(C2(O)OC(=O)C(c3ccc(Cl)c(Cl)c3)=C2Cc2ccccc2)cc1 (stereo not shown) [Example 120, 4-Benzyl-3-(3,4-dichlorophenyl)-5-hydroxy-5-(4-methoxyphenyl)-5H-furan-2-one] | 0.85 |  | 
COc1ccc(C2(O)OC(=O)C(c3ccc(F)c(F)c3)=C2Cc2ccccc2)cc1 (stereo not shown) [Example 143, 4-Benzyl-3-(3,4-difluorophenyl)-5-hydroxy-5-(4-methoxyphenyl)-5H-furan-2-one] | 1.9 |  | 
COc1ccc(C2(O)OC(=O)C(c3ccc(F)c(F)c3)=C2Cc2ccc(N(C)C)cc2)cc1 (stereo not shown) [Example 145, 3-(3,4-Difluorophenyl)-4-(4-dimethylaminobenzyl)-5-hydroxy-5-(4-methoxyphenyl)-5H-furan-2-one] | 1.7 |  | 
COc1ccc(C2(O)OC(=O)C(c3cc(Cl)cc(Cl)c3)=C2Cc2ccccc2)cc1 (stereo not shown) [Example 149, 4-Benzyl-3-(3,5-dichloro-phenyl)-5-hydroxy-5-(4-methoxy-phenyl)-5H-furan-2-one] | 0.6 |  | 
COC(=O)c1ccc(C2(O)OC(=O)C(c3ccc4c(c3)OCO4)=C2Cc2ccccc2)cc1 (stereo not shown) [Example 198, 4-(4-Benzo[1,3]dioxol-5-yl-3-benzyl-2-hydroxy-5-oxo-2,5-dihydrofuran-2-yl)b enzoic acid methyl ester] | 0.41 |  | 
Cc1ccc(C2(O)OC(=O)C(c3ccc4c(c3)OCO4)=C2Cc2ccccc2)cc1C (stereo not shown) [Example 212, 3-Benzo[1,3]dioxol-5-yl-4-benzyl-5-(3,4-dimethylphenyl)-5-hydroxy-5H-furan-2-one] | 1.3 |  | 
COc1ccccc1C1(O)OC(=O)C(c2ccc3c(c2)OCO3)=C1Cc1ccccc1 (stereo not shown) [Example 249, 3-Benzo[1,3]dioxol-5-yl-4-benzyl-5-hydroxy-5-(2-methoxyphenyl)-5H-furan-2-one] | 0.5 |  | 
CCc1ccc(C2(O)OC(=O)C(c3ccc4c(c3)OCO4)=C2Cc2ccccc2)cc1 (stereo not shown) [Example 266, 3-Benzo[1,3]dioxol-5-yl-4-benzyl-5-(4-ethylphenyl)-5-hydroxy-5H-furan-2-one] | 0.6 |  | 
COc1ccc(C(=O)/C(Cc2cc(OC)c(OC)c(OC)c2)=C(\C(=O)O)c2cc(OC)c3c(c2)OCO3)cc1C [Example 369, Sodium 2-(7-Methoxy-benzo[1,3]dioxol-5-yl)-3-(4-methoxy-3-methyl-benzoyl)-4-(3,4,5-trimethoxyphenyl)-but-2-enoate] |  | 0.328 | 

The next lines start with the values.

IC50 (ETA; [1]) [µM] | IC50 (human ETB receptor) [µM] | IC50 (ETA; read-out: ERBA-A IC50, [125I]-ET-1, rabbit renal artery vascular smooth muscle cells) [µM] | Compound
0.05 | 4 |  | COc1ccc(C2(O)OC(=O)C(c3ccc4c(c3)OCO4)=C2Cc2cncc3ccccc23)cc1 (racemic) [Example 164, monohydrochloride]
0.04 | 25 |  | COc1ccc(C2(O)OC(=O)C(c3ccc4c(c3)OCO4)=C2Cc2cccnc2)cc1 (racemic) [Example 165, 2(5H)-Furanone, 3-(1,3-benzodioxol-5-yl)-5-hydroxy-5-(4-methoxyphenyl)-4-(3-pyridinylmethyl)-, (±)-, monohydrochloride]
0.04 | > 2.5 |  | COc1ccc(C2(O)OC(=O)C(c3cc(OC)cc(OC)c3)=C2Cc2cccnc2)cc1 (racemic) [Example 166, 2(5H)-Furanone, 3-(3,5-dimethoxyphenyl)-5-hydroxy-5-(4-methoxyphenyl)-4-(3-pyridinylmethyl)-, (±)-, monohydrochloride]
0.012 |  |  | COc1ccc(C2(O)OC(=O)C(c3ccc4c(c3)OCO4)=C2Cc2ccccc2)cc1C (racemic) [Example 290, 2(5H)-Furanone, 3-(1,3-benzodioxol-5-yl)-5hydroxy-5-(4-methoxy-3-methylphenyl)-4-(phenylmethyl)-, (±)-]
0.31 |  |  | COc1ccc(C2(O)OC(=O)C(c3ccc4c(c3)OCO4)=C2Cc2ccc(OCc3ccccc3)cc2)cc1 (stereo not shown) [Example 86, 3-Benzo[1,3]dioxol-5-yl-4-(4-benzyloxybenzyl)-5-hydroxy-5-(4-methoxyphenyl) -5H-furan-2-one]
0.063 | 1.5 |  | COc1ccc(C2(O)OC(=O)C(c3ccc4c(c3)OCO4)=C2Cc2ccc3c(c2)OCO3)cc1 (stereo not shown) [Example 87, 3-Benzo[1,3]dioxol-5-yl-4-benzo[1,3]dioxol-5-ylmethyl-5-hydroxy-5-(4-methoxyphenyl)-5H-furan-2-one]
0.25 |  |  | COc1ccc(C2(O)OC(=O)C(c3ccc4c(c3)OCO4)=C2Cc2ccc(C(F)(F)F)cc2)cc1 (stereo not shown) [Example 88, 3-Benzo[1,3]dioxol-5-yl-5-hydroxy-5-(4-methoxyphenyl)-4-(4-trifluoromethylbenzyl)-5H-furan-2-one]
0.3 | 25 |  | COc1ccc(C2(O)OC(=O)C(c3ccc(OC)cc3OC)=C2Cc2ccccc2)cc1 (stereo not shown) [Example 113, 4-Benzyl-3-(2,4-dimethoxyphenyl)-5-hydroxy-5-(4-mehoxyphenyl)-5H-furan-2-one]
0.31 | 2.7 |  | COc1ccc(CC2=C(c3ccc(Cl)c(Cl)c3)C(=O)OC2(O)c2ccc(OC)cc2)cc1 (stereo not shown) [Example 117, 3-(3,4-Dichlorophenyl)-5-hydroxy-4-(4-methoxybenzyl)-5-(4-methoxyphenyl)-5H -furan-2-one]
0.074 |  |  | COc1ccc(C2(O)OC(=O)C(c3ccc(Cl)c(Cl)c3)=C2Cc2ccc(C(C)C)cc2)cc1 (stereo not shown) [Example 121, 3-(3,4-Dichlorophenyl)-5-hydroxy-4-(4-isopropylbenzyl)-5-(4-methoxyphenyl)-5H-furan-2-one]
0.29 |  |  | COc1ccc(C2(O)OC(=O)C(c3ccc(F)c(F)c3)=C2Cc2ccc(C(C)C)cc2)cc1 (stereo not shown) [Example 144, 3-(3,4-Difluorophenyl)-5-hydroxy-4-(4-isopropylbenzyl)-5-(4-methoxyphenyl)-5H-furan-2-one]
0.013 |  |  | COc1ccc(C2(O)OC(=O)C(c3ccc4c(c3)OCO4)=C2Cc2cccc3ccccc23)cc1 (stereo not shown) [Example 250, 3-Benzo[1,3]dioxol-5-yl-5-hydroxy-5-(4-methoxyphenyl)-4-naphthalen-1-ylmethyl-5H-furan-2-one]
0.39 |  |  | CSc1ccc(C2(O)OC(=O)C(c3ccc4c(c3)OCO4)=C2Cc2ccccc2)cc1 (stereo not shown) [Example 271, 3-Benzo[1,3]dioxol-5-yl-4-benzyl-5-hydroxy-5-(4-methylsulfanylphenyl)-5H-fu ran-2-one]
0.012 |  |  | COc1ccc(C2(O)OC(=O)C(c3cc(OC)cc(OC)c3)=C2CC2CCCCC2)cc1 (stereo not shown) [Example 275, 2(5H)-Furanone, 4-(cyclohexylmethyl)-3-(3,5-dimethoxyphenyl)-5-hydroxy-5-(4-methoxyphenyl)]
0.083 |  |  | COc1ccc(C2(O)OC(=O)C(c3ccc4c(c3)OCO4)=C2Cc2cccc(C(=O)O)c2)cc1 (stereo not shown) [Example 292, 3-[4-Benzo[1,3]dioxol-5-yl-2-hydroxy-2-(4-methoxyphenyl)-5-oxo-2,5-dihydro-furan-3-ylmethyl]-benzoic acid]
0.033 |  |  | COc1ccc(C2(O)OC(=O)C(c3ccc4c(c3)OCO4)=C2Cc2ccc(OC)c(OC)c2OC)cc1 (stereo not shown) [Example 305, 3-Benzo[1,3]dioxol-5-yl-5-hydroxy-5-(4-methoxy-phenyl)-4-(2,3,4-trimethoxy-benzyl)-5H-furan-2-one]
